Data on seven compounds can be found in patent publication US5128344A, “Sampangine and derivatives useful as an antifungal agent” (University of Mississippi, priority 1990, dated 1992).

Molecules are shown by their SMILES. Converted amounts (≈) assume the structure as drawn. “Also recorded” adds a separate entry of the source.

Assay [1] has as its system Candida albicans. As to the kind of experiment: MIC, twofold serial broth dilution assay, Candida albicans. Type of assay: cell-based, Candida albicans NIH B311. Particulars: 24 h, 37°. Here is the method:
(§1) Candida albicans NIH B311 used to induce experimental disseminated candidiasis was used for the initial qualitative evaluation of anticandidal activity. The organism was grown in Sabouraud-dextrose broth (SDB) for 24 hours at 37°, at which time the cells were harvested by centrifugation at (4°, 2000 rpm, 3 min.). After centrifugation, the cells were washed and suspended in sterile 0.9% saline to give a final concentration of 10^6 colony forming units (CFU) per ml (adjusted using a hemocytometer). Inocula of Cryptococcus neoformans and Aspergillus fumigatus were prepared by suspension of the surface growth of stock agar slants in sterile H2 O. Culture plates (15×100 mm) for the qualitative assay were prepared from 25 ml of Sabouraud-dextrose agar for Candida albicans, and Mycophil™ agar for Cryptococcus neoformans and Aspergillus fumigatus. Using sterile cotton swabs, the plates were streaked with the suspension of appropriate test organism. Cylindrical plugs were removed from the agar plates by means of sterile cork borer to produce wells with a diameter of approximately 11 mm. To the well was added 100 μl of solution or suspension of an extract, fraction, or pure compound. Crude extracts and fractions were tested at a concentration of 20 mg/ml, whereas pure compounds were tested at 1 mg/ml. When solvents other than water, ethanol, methanol, dimethylsulfoxide (DMSO), dimethylformamide (DMF), or acetone were required to dissolve extracts or compounds, solvent blanks were included. Antifungal activity was recorded as the width (in mm) of the zone of inhibition, measured from the edge of the agar well to the edge of the zone, following incubation of the plates for 24 hours (37° for Candida albicans, 30° for Aspergillus fumigatus and 26° for Cryptococcus neoformans). The antifungal agents amphotericin B and ketoconazole were included as positive controls in each assay.
(§2) The method used to determine the minimum inhibitory concentration (MIC) was the twofold serial broth dilution assay in one or more of the following broth media: yeast nitrogen broth, Mycophil™ broth and Saboraud-dextrose broth (SDB). The inoculum for the MIC determination was prepared as described above for the qualitative evaluation. Using a calibrated sterile wire loop, each tube was inoculated with 10 μl of the suspension. The MIC value was taken as the lowest concentration of compound that inhibited the growth of the test organisms after an appropriate incubation period (37° for 24 hours for Candida albicans; 30° for 48 hours for Aspergillus fumigatus; 26° for 48 hours for Cryptococcus neoformans). The antifungal agent amphotericin B was included as positive control in each assay.
(In general: Dilution methods test growth across graded concentrations, often in twofold steps.)

A further assay has as its system Cryptococcus neoformans. Put plainly: MIC, twofold serial broth dilution assay, Cryptococcus neoformans. Particulars: 48 h, Cn, 26°. Type of assay: cell-based, Cryptococcus neoformans ATCC 32264. On the procedure:
(§3) The generic name for the compound is 3-Methoxysampangine. The antifungal activity of the compound was determined by in vitro evaluation against Candida albicans NIH B311, Cryptococcus neoformans ATCC 32264, and Aspergillus fumigatus ATCC 26934 using the known agar-well diffusion assay techniques with the following modifications.
as §1, §2

In the next assay the test system is Aspergillus fumigatus. As to the kind of experiment: MIC, twofold serial broth dilution assay, Aspergillus fumigatus. Type of assay: cell-based, Aspergillus fumigatus ATCC 26934. Particulars: Af, 30°, 48 hours. Here is the method: as §3, §1, §2
In assay [2] the test system is Candida albicans. The conditions noted are these: J. Natural Products 1987, Hufford et al.; cited from earlier work.
Assay [3] has as its system Candida albicans, Cryptococcus neoformans and Aspergillus fumigatus. Put plainly: in vitro antifungal activity, overall statement in words. The format is cell-based. The conditions noted are these: against both yeasts and the filamentous fungus. Here is the method:
as §3, §1
The method used to determine the minimum inhibitory concentration (MIC) was the twofold serial broth dilution assay in one or more of the following broth media: yeast nitrogen broth, Mycophil™ broth and Saboraud-dextrose broth (SDB). The inoculum for the MIC determination was prepared as described above for the qualitative evaluation. Using a calibrated sterile wire loop, each tube was inoculated with 10 μl of the suspension. […]

The mark [4] stands for this setting: Candida albicans, Ca B311, MYCO (Mycophil broth).
The mark [5] stands for this setting: Cryptococcus neoformans, MYCO (Mycophil broth).
Where [6] appears, read: Candida albicans, Ca B311, SDB (Sabouraud dextrose broth).
Where [7] appears, read: Cryptococcus neoformans, SDB (Sabouraud dextrose broth).
Where [8] appears, read: Ca B311, YNB (yeast nitrogen base broth).
[9] abbreviates: YNB (yeast nitrogen base broth).

In the case of `C[C@@H]1[C@H](O)[C@@H](C)/C=C/C=C/C=C/C=C/C=C/C=C/C=C/[C@H](O[C@@H]2O[C@H](C)[C@@H](O)[C@H](N)[C@@H]2O)C[C@@H]2O[C@](O)(C[C@@H](O)C[C@@H](O)[C@H](O)CC[C@@H](O)C[C@@H](O)CC(=O)O[C@H]1C)C[C@H](O)[C@H]2C(=O)O` [Amphotericin B, reference compound], the results for the MIC with Candida albicans [1] (setting [4]), in the assay on Cryptococcus neoformans (setting [5]) and with Aspergillus fumigatus (MYCO (Mycophil broth)) were 0.2 µg/mL (≈ 0.216 µM), 0.2 µg/mL (≈ 0.216 µM) and 3.12 µg/mL (≈ 3.38 µM), respectively.

For the compound `c1ccc2c(c1)-c1nccc3ccnc-2c13` [eupolauridine], the “anticandidal properties (in words)” value with Candida albicans [2] is listed as “possibly remarkable anticandidal properties”.

On to `COc1cnc2c3c(nccc13)C(=O)c1ccccc1-2` [3-Methoxysampangine], for which the figures for the MIC with Candida albicans [1] (setting [6]), against Cryptococcus neoformans (setting [7]) and against Aspergillus fumigatus (SDB (Sabouraud dextrose broth)) were 3.12 µg/mL (≈ 11.9 µM), 0.2 µg/mL (≈ 0.763 µM) and 3.12 µg/mL (≈ 11.9 µM), respectively. For the same compound, the “antifungal activity (in words)” value in assay [3] was “significant antifungal activity; also recorded: remarkable antifungal properties”.

As to `O=C1c2ccccc2-c2nccc3ccnc1c23` [Sampangine], the minimum inhibitory concentration (MIC) against Candida albicans [1] (Ca B311, YNB (yeast nitrogen base broth) (original)) was 1.56 µg/mL (≈ 6.72 µM); against Candida albicans [1] (setting [8]), 0.78 µg/mL (≈ 3.36 µM); in the assay on Candida albicans [1] (setting [4]), 12.5 µg/mL (≈ 53.8 µM); with Candida albicans [1] (setting [6]), 6.25 µg/mL (≈ 26.9 µM); against Cryptococcus neoformans (YNB (yeast nitrogen base broth) (original)) it was under 0.005 µg/mL; with Cryptococcus neoformans (setting [9]), under 0.2 µg/mL. The results for the MIC against Cryptococcus neoformans (setting [5]), against Cryptococcus neoformans (setting [7]) and against Aspergillus fumigatus (MYCO (Mycophil broth)) were 0.78 µg/mL (≈ 3.36 µM), under 0.2 µg/mL and 1.56 µg/mL (≈ 6.72 µM), respectively. Further, in assay [3], the “antifungal activity (in words)” value is “significant antifungal activity”.

In the case of `O=C1c2ccccc2-c2nccc3c(Br)cnc1c23` [4-Bromosampangine], the minimal inhibitory concentration (MIC) against Candida albicans [1] (setting [8]) is 12.5 µg/mL (≈ 40.2 µM); against Candida albicans [1] (setting [4]), 25 µg/mL (≈ 80.4 µM); in the assay with Candida albicans [1] (setting [6]), 25 µg/mL (≈ 80.4 µM); against Cryptococcus neoformans (setting [9]) it was under 0.2 µg/mL; with Cryptococcus neoformans (setting [5]), under 0.2 µg/mL; against Cryptococcus neoformans (setting [7]), 0.39 µg/mL (≈ 1.25 µM). Besides, 50 µg/mL (≈ 161 µM) was the least that counted as inhibitory against Aspergillus fumigatus (MYCO (Mycophil broth)) (MIC). Moreover, in assay [3], the “antifungal activity (in words)” value is recorded as “significant antifungal activity”.

`O=C1c2ccccc2-c2nccc3c2c1nc1ccccc13` [Benzo[4,5]sampangine]: the MIC in the assay with Candida albicans [1] (setting [8]) is 3.12 µg/mL (≈ 11.1 µM); in the assay on Candida albicans [1] (setting [4]), 50 µg/mL (≈ 177 µM); with Candida albicans [1] (setting [6]), 1.56 µg/mL (≈ 5.53 µM); against Cryptococcus neoformans (setting [9]) it was 1.56 µg/mL (≈ 5.53 µM); in the assay on Cryptococcus neoformans (setting [5]), under 0.2 µg/mL; in the assay on Cryptococcus neoformans (setting [7]) it was under 0.2 µg/mL. Further, inhibition of growth with Aspergillus fumigatus (MYCO (Mycophil broth)) (MIC) required 0.39 µg/mL (≈ 1.38 µM).

Take `COc1cnc2c3c(nccc13)-c1ccccc1C2=O` [4-Methoxysampangine]: the MIC with Candida albicans [1] (setting [8]) was determined as 3.12 µg/mL (≈ 11.9 µM); in the assay with Candida albicans [1] (setting [4]) it was 100 µg/mL (≈ 381 µM); in the assay with Candida albicans [1] (setting [6]) it was 100 µg/mL (≈ 381 µM); in the assay with Cryptococcus neoformans (setting [9]) it was 12.5 µg/mL (≈ 47.7 µM); in the assay with Cryptococcus neoformans (setting [5]), 1.56 µg/mL (≈ 5.95 µM); against Cryptococcus neoformans (setting [7]), 3.12 µg/mL (≈ 11.9 µM). In assay [3], the “antifungal activity (in words)” value is “significant antifungal activity”.

As a reminder, the MIC is the lowest concentration that inhibits growth of the organism. The low end stands for inhibition by little substance, the high end for a need for much substance.
